The source made the active and inactive calls. The rule behind the calls is not given here.
Legend:
[1] = target: T1, Glucocorticoid receptor (Homo sapiens) (UniProt P04150); assay: Activity at GR expressed in mouse L929 cells at 10 uM by transactivation assay relative to control; format: cell-based
T1 sequence (whole entry): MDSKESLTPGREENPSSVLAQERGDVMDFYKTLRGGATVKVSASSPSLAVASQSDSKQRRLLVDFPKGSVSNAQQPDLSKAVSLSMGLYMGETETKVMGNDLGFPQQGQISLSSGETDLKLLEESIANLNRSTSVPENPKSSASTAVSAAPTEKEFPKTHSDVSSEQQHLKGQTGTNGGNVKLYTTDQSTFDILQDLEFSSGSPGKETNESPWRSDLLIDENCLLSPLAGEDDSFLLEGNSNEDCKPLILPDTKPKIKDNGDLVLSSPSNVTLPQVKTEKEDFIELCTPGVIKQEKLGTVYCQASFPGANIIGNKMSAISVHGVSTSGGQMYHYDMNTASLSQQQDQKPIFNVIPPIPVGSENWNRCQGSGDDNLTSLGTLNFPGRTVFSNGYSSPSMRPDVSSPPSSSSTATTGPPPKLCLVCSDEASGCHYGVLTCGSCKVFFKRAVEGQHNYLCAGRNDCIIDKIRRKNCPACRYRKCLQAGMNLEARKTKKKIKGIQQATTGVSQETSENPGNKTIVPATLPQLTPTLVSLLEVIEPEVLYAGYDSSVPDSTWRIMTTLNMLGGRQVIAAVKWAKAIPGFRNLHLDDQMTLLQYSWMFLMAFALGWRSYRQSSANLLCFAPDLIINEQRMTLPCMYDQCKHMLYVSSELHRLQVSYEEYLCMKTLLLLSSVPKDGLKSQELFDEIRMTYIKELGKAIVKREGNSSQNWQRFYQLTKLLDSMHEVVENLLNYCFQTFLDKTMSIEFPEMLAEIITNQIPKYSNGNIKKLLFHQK

[2] = system: Liver; assay: Effect on increase in glycogen deposition in rat liver; format: functional, tissue-based
[3] = target: T2, Tyrosine aminotransferase (Homo sapiens) (UniProt P17735); assay: Induction of tyrosine aminotransferase
T2 sequence (whole entry): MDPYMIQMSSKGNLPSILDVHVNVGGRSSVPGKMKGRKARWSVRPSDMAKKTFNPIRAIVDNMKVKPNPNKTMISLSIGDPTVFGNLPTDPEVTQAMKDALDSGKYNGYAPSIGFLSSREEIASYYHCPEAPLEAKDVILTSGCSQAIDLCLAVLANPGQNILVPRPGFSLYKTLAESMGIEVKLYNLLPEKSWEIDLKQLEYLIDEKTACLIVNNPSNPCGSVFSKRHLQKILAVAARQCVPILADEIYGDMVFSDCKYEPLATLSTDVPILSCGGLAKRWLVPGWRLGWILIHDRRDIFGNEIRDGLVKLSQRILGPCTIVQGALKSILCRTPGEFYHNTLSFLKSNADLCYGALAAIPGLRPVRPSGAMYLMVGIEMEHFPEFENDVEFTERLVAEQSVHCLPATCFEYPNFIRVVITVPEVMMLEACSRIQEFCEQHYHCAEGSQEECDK

Activity [1]: inactive
Activity [3]: inactive
SMILES: C[C@]12CC[C@H]3[C@@H](CC4OC[C@@]35CCC(=O)C=C45)[C@@H]1CC[C@@H]2C(=O)CO
Activity [2]: inactive

From ChEMBL document CHEMBL1141601, “Exploring the molecular basis of action of the passive antiglucocorticoid 21-hydroxy-6,19-epoxyprogesterone” (J Med Chem, 2008)
